# Measurements from patent publication US7563592B2, “Alizarin-based chromogenic substrates, their uses and composition containing same” (Biomerieux, S.A., priority 1999, dated 2009).
# Key:
# Assay in all cases: Effect of metal salts on the color of the marker part, substrate 50 mg/l in Columbia medium (Example 3)
# Format in all cases: cell-based
# Listeria grayi 078 = test system: Listeria grayi 078
# Method: (§1) To the Columbia-base medium (46.37 g/l) supplemented with Alizarin-2-β-D-glucoside (50 mg/l), were added either Manganese chloride, Ammoniacal iron citrate, Tin chloride, or Aluminum sulfate, all at a concentration of 50 mg/l. A control medium with no metal salts was tested in parallel. After autoclaving, these various media were all used to prepare Petri dishes (20 ml per plate). […] It should be pointed out that intensity readings are in arbitrary units. The only purpose of giving these values is to make it possible to compare one strain with another in this respect. The same is true for the examples which follow. Similarly, the strains tested were taken from the Applicant's collection and the number given represents an internal reference specific to this collection. The same internal numbering system is also used in some of the examples given later on.
# Listeria innocua 036 = test system: Listeria innocua 036
# Method: as §1
# Listeria innocua 077 = test system: Listeria innocua 077
# Method: as §1
# [1] = test system: Listeria monocytogenes 023
# Method: as §1
# [2] = test system: Listeria monocytogenes 081
# Method: as §1
# Listeria seeligeri 011 = test system: Listeria seeligeri 011
# Method: as §1
# Listeria welshimeri 023 = test system: Listeria welshimeri 023
# Method: as §1
# [3] = Manganese chloride 50 mg/l, 24 H
# [4] = Manganese chloride 50 mg/l, 48 H
smiles,measurement,setting,value
O=C1c2ccccc2C(=O)c2c1ccc(O[C@@H]1O[C@H](CO)[C@@H](O)[C@H](O)[C@H]1O)c2O [Alizarin-2-β-D-glucoside],Color,"Listeria grayi 078; Aluminum sulfate 50 mg/l, 24 H",red
same,Intensity,"Listeria grayi 078; Aluminum sulfate 50 mg/l, 24 H",4 arbitrary units
same,Color,"Listeria grayi 078; Aluminum sulfate 50 mg/l, 48 H",red
same,Intensity,"Listeria grayi 078; Aluminum sulfate 50 mg/l, 48 H",4 arbitrary units
same,Color,"Listeria grayi 078; Control, no metal salt, 24 H",purple
same,Intensity,"Listeria grayi 078; Control, no metal salt, 24 H",2 arbitrary units
same,Color,"Listeria grayi 078; Control, no metal salt, 48 H",purple
same,Intensity,"Listeria grayi 078; Control, no metal salt, 48 H",2.3 arbitrary units
same,Color,"Listeria grayi 078; Iron citrate 50 mg/l, 24 H",purple
same,Intensity,"Listeria grayi 078; Iron citrate 50 mg/l, 24 H",4 arbitrary units
same,Color,"Listeria grayi 078; Iron citrate 50 mg/l, 48 H",purple
same,Intensity,"Listeria grayi 078; Iron citrate 50 mg/l, 48 H",4 arbitrary units
same,Color,Listeria grayi 078; [3],purple
same,Intensity,Listeria grayi 078; [3],2 arbitrary units
same,Color,Listeria grayi 078; [4],purple
same,Intensity,Listeria grayi 078; [4],2 arbitrary units
same,Color,"Listeria grayi 078; Tin chloride 50 mg/l, 24 H",orange
same,Intensity,"Listeria grayi 078; Tin chloride 50 mg/l, 24 H",3 arbitrary units
same,Color,"Listeria grayi 078; Tin chloride 50 mg/l, 48 H",orange
same,Intensity,"Listeria grayi 078; Tin chloride 50 mg/l, 48 H",4 arbitrary units
same,Color,"Listeria innocua 036; Aluminum sulfate 50 mg/l, 24 H",red
same,Intensity,"Listeria innocua 036; Aluminum sulfate 50 mg/l, 24 H",4 arbitrary units
same,Color,"Listeria innocua 036; Aluminum sulfate 50 mg/l, 48 H",red
same,Intensity,"Listeria innocua 036; Aluminum sulfate 50 mg/l, 48 H",4 arbitrary units
same,Color,"Listeria innocua 036; Control, no metal salt, 24 H",purple
same,Intensity,"Listeria innocua 036; Control, no metal salt, 24 H",2.3 arbitrary units
same,Color,"Listeria innocua 036; Control, no metal salt, 48 H",purple
same,Intensity,"Listeria innocua 036; Control, no metal salt, 48 H",2.7 arbitrary units
same,Color,"Listeria innocua 036; Iron citrate 50 mg/l, 24 H",purple
same,Intensity,"Listeria innocua 036; Iron citrate 50 mg/l, 24 H",4 arbitrary units
same,Color,"Listeria innocua 036; Iron citrate 50 mg/l, 48 H",purple
same,Intensity,"Listeria innocua 036; Iron citrate 50 mg/l, 48 H",4 arbitrary units
same,Color,Listeria innocua 036; [3],purple
same,Intensity,Listeria innocua 036; [3],2.3 arbitrary units
same,Color,Listeria innocua 036; [4],purple
same,Intensity,Listeria innocua 036; [4],2.7 arbitrary units
same,Color,"Listeria innocua 036; Tin chloride 50 mg/l, 24 H",orange
same,Intensity,"Listeria innocua 036; Tin chloride 50 mg/l, 24 H",3 arbitrary units
same,Color,"Listeria innocua 036; Tin chloride 50 mg/l, 48 H",orange
same,Intensity,"Listeria innocua 036; Tin chloride 50 mg/l, 48 H",4 arbitrary units
same,Color,"Listeria innocua 077; Aluminum sulfate 50 mg/l, 24 H",red
same,Intensity,"Listeria innocua 077; Aluminum sulfate 50 mg/l, 24 H",4 arbitrary units
same,Color,"Listeria innocua 077; Aluminum sulfate 50 mg/l, 48 H",red
same,Intensity,"Listeria innocua 077; Aluminum sulfate 50 mg/l, 48 H",4 arbitrary units
same,Color,"Listeria innocua 077; Control, no metal salt, 24 H",purple
same,Intensity,"Listeria innocua 077; Control, no metal salt, 24 H",2.3 arbitrary units
same,Color,"Listeria innocua 077; Control, no metal salt, 48 H",purple
same,Intensity,"Listeria innocua 077; Control, no metal salt, 48 H",2.3 arbitrary units
same,Color,"Listeria innocua 077; Iron citrate 50 mg/l, 24 H",purple
same,Intensity,"Listeria innocua 077; Iron citrate 50 mg/l, 24 H",4 arbitrary units
same,Color,"Listeria innocua 077; Iron citrate 50 mg/l, 48 H",purple
same,Intensity,"Listeria innocua 077; Iron citrate 50 mg/l, 48 H",4 arbitrary units
same,Color,Listeria innocua 077; [3],purple
same,Intensity,Listeria innocua 077; [3],2.3 arbitrary units
same,Color,Listeria innocua 077; [4],purple
same,Intensity,Listeria innocua 077; [4],2.3 arbitrary units
same,Color,"Listeria innocua 077; Tin chloride 50 mg/l, 24 H",orange
same,Intensity,"Listeria innocua 077; Tin chloride 50 mg/l, 24 H",3 arbitrary units
same,Color,"Listeria innocua 077; Tin chloride 50 mg/l, 48 H",orange
same,Intensity,"Listeria innocua 077; Tin chloride 50 mg/l, 48 H",4 arbitrary units
same,Color,"[1]; Aluminum sulfate 50 mg/l, 24 H",red
same,Intensity,"[1]; Aluminum sulfate 50 mg/l, 24 H",4 arbitrary units
same,Color,"[1]; Aluminum sulfate 50 mg/l, 48 H",red
same,Intensity,"[1]; Aluminum sulfate 50 mg/l, 48 H",4 arbitrary units
same,Color,"[1]; Control, no metal salt, 24 H",purple
same,Intensity,"[1]; Control, no metal salt, 24 H",2 arbitrary units
same,Color,"[1]; Control, no metal salt, 48 H",purple
same,Intensity,"[1]; Control, no metal salt, 48 H",2 arbitrary units
same,Color,"[1]; Iron citrate 50 mg/l, 24 H",purple
same,Intensity,"[1]; Iron citrate 50 mg/l, 24 H",4 arbitrary units
same,Color,"[1]; Iron citrate 50 mg/l, 48 H",purple
same,Intensity,"[1]; Iron citrate 50 mg/l, 48 H",4 arbitrary units
same,Color,[1]; [3],purple
same,Intensity,[1]; [3],2.7 arbitrary units
same,Color,[1]; [4],purple
same,Intensity,[1]; [4],2.7 arbitrary units
same,Color,"[1]; Tin chloride 50 mg/l, 24 H",orange
same,Intensity,"[1]; Tin chloride 50 mg/l, 24 H",3 arbitrary units
same,Color,"[1]; Tin chloride 50 mg/l, 48 H",orange
same,Intensity,"[1]; Tin chloride 50 mg/l, 48 H",4 arbitrary units
same,Color,"[2]; Aluminum sulfate 50 mg/l, 24 H",red
same,Intensity,"[2]; Aluminum sulfate 50 mg/l, 24 H",4 arbitrary units
same,Color,"[2]; Aluminum sulfate 50 mg/l, 48 H",red
same,Intensity,"[2]; Aluminum sulfate 50 mg/l, 48 H",4 arbitrary units
same,Color,"[2]; Control, no metal salt, 24 H",purple
same,Intensity,"[2]; Control, no metal salt, 24 H",2.3 arbitrary units
same,Color,"[2]; Control, no metal salt, 48 H",purple
same,Intensity,"[2]; Control, no metal salt, 48 H",2.3 arbitrary units
same,Color,"[2]; Iron citrate 50 mg/l, 24 H",purple
same,Intensity,"[2]; Iron citrate 50 mg/l, 24 H",4 arbitrary units
same,Color,"[2]; Iron citrate 50 mg/l, 48 H",purple
same,Intensity,"[2]; Iron citrate 50 mg/l, 48 H",4 arbitrary units
same,Color,[2]; [3],purple
same,Intensity,[2]; [3],2.3 arbitrary units
same,Color,[2]; [4],purple
same,Intensity,[2]; [4],2.7 arbitrary units
same,Color,"[2]; Tin chloride 50 mg/l, 24 H",orange
same,Intensity,"[2]; Tin chloride 50 mg/l, 24 H",3 arbitrary units
same,Color,"[2]; Tin chloride 50 mg/l, 48 H",orange
same,Intensity,"[2]; Tin chloride 50 mg/l, 48 H",4 arbitrary units
same,Color,"Listeria seeligeri 011; Aluminum sulfate 50 mg/l, 24 H",red
same,Intensity,"Listeria seeligeri 011; Aluminum sulfate 50 mg/l, 24 H",4 arbitrary units
same,Color,"Listeria seeligeri 011; Aluminum sulfate 50 mg/l, 48 H",red
same,Intensity,"Listeria seeligeri 011; Aluminum sulfate 50 mg/l, 48 H",4 arbitrary units
same,Color,"Listeria seeligeri 011; Control, no metal salt, 24 H",purple
same,Intensity,"Listeria seeligeri 011; Control, no metal salt, 24 H",2.3 arbitrary units
same,Color,"Listeria seeligeri 011; Control, no metal salt, 48 H",purple
same,Intensity,"Listeria seeligeri 011; Control, no metal salt, 48 H",2.3 arbitrary units
same,Color,"Listeria seeligeri 011; Iron citrate 50 mg/l, 24 H",purple
same,Intensity,"Listeria seeligeri 011; Iron citrate 50 mg/l, 24 H",4 arbitrary units
same,Color,"Listeria seeligeri 011; Iron citrate 50 mg/l, 48 H",purple
same,Intensity,"Listeria seeligeri 011; Iron citrate 50 mg/l, 48 H",4 arbitrary units
same,Color,Listeria seeligeri 011; [3],purple
same,Intensity,Listeria seeligeri 011; [3],2.7 arbitrary units
same,Color,Listeria seeligeri 011; [4],purple
same,Intensity,Listeria seeligeri 011; [4],2.7 arbitrary units
same,Color,"Listeria seeligeri 011; Tin chloride 50 mg/l, 24 H",orange
same,Intensity,"Listeria seeligeri 011; Tin chloride 50 mg/l, 24 H",3 arbitrary units
same,Color,"Listeria seeligeri 011; Tin chloride 50 mg/l, 48 H",orange
same,Intensity,"Listeria seeligeri 011; Tin chloride 50 mg/l, 48 H",4 arbitrary units
same,Color,"Listeria welshimeri 023; Aluminum sulfate 50 mg/l, 24 H",red
same,Intensity,"Listeria welshimeri 023; Aluminum sulfate 50 mg/l, 24 H",4 arbitrary units
same,Color,"Listeria welshimeri 023; Aluminum sulfate 50 mg/l, 48 H",red
same,Intensity,"Listeria welshimeri 023; Aluminum sulfate 50 mg/l, 48 H",4 arbitrary units
same,Color,"Listeria welshimeri 023; Control, no metal salt, 24 H",purple
same,Intensity,"Listeria welshimeri 023; Control, no metal salt, 24 H",2.3 arbitrary units
same,Color,"Listeria welshimeri 023; Control, no metal salt, 48 H",purple
same,Intensity,"Listeria welshimeri 023; Control, no metal salt, 48 H",2.3 arbitrary units
same,Color,"Listeria welshimeri 023; Iron citrate 50 mg/l, 24 H",purple
same,Intensity,"Listeria welshimeri 023; Iron citrate 50 mg/l, 24 H",4 arbitrary units
same,Color,"Listeria welshimeri 023; Iron citrate 50 mg/l, 48 H",purple
same,Intensity,"Listeria welshimeri 023; Iron citrate 50 mg/l, 48 H",4 arbitrary units
same,Color,Listeria welshimeri 023; [3],purple
same,Intensity,Listeria welshimeri 023; [3],2.3 arbitrary units
same,Color,Listeria welshimeri 023; [4],purple
same,Intensity,Listeria welshimeri 023; [4],2.7 arbitrary units
same,Color,"Listeria welshimeri 023; Tin chloride 50 mg/l, 24 H",orange
same,Intensity,"Listeria welshimeri 023; Tin chloride 50 mg/l, 24 H",3 arbitrary units
same,Color,"Listeria welshimeri 023; Tin chloride 50 mg/l, 48 H",orange
same,Intensity,"Listeria welshimeri 023; Tin chloride 50 mg/l, 48 H",4 arbitrary units
